# Values quoted from earlier work in US20060270013A1 (priority 2003, published 2006).
# Biological target: NADPH-dependent benzil reductase (Bacillus cereus, UniProt Q8RJB2)
# Conditions: substrate of benzil reductase; Maruyama et al. 2002
# Sequence of NADPH-dependent benzil reductase (Q8RJB2 whole entry): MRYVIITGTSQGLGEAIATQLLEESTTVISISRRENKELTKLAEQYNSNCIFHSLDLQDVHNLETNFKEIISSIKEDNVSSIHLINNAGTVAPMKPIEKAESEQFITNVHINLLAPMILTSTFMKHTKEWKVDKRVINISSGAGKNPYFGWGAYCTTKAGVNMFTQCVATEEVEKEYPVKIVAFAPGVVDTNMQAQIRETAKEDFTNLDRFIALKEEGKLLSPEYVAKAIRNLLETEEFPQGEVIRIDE
SMILES,Km,kcat
"CC(=O)C(=O)c1ccccc1 [1-phenyl-1,2-propanedione]",42 µM,2.75 s⁻¹
O=Cc1ccc([N+](=O)[O-])cc1 [p-nitrobenzaldehyde],261 µM,0.02 s⁻¹
